Assay results taken from patent US6767561B2, “DNA polymerase inhibitors, mikanolide and dihydromikanolide” (Societe de Conseils de Recherches et d'Applications …, priority 1999, dated 2004).

Assays:
[1] = test system: HT29 cells; test: Incorporation of tritiated thymidine into the DNA of HT29 cells in exponential growth phase (in vitro); format: cell-based, human; conditions: 1 hour treatment
Procedure: (§1) The cell lines DU145 (human prostate cancer cells), HT29 (cancer of the colon) and Mia-PaCa2 (human pancreatic cancer cells) were acquired from the American Tissue Culture Collection (Rockville, Md., USA).
Incorporation of Thymidine Labelled With Tritium into DNA Cells in Exponential Growth Phase (in vitro)
HT29 cells are seeded in 96-well plates (culturPlate-96, Packard; 4000 cells per well) with the medium (DMEM, Gibco BRL complemented with 10% foetal calf serum, Gibco BRL). On day 3, the medium is removed and replaced by medium containing the tritiated thymidine (5′-thymidine TRK.328, 1 mCi, 0.6 μCi/wells, Amersham) with or without the products (range of 100 to 0.19 μg/ml per ½ dilutions). The treatments are carried out for 1 hour. The medium is then removed and the cells are washed twice with 200 μl of PBS (Gibco BRL). The lysis solution (SDS 1.25%; EDTA 5 mM) is added and left for 10 minutes at ambient temperature, then 75 μl of scintillating liquid (microscint® 40, Packard) is added. Reading is carried out using Topcount® (Packard). The results are expressed as a percentage of the inhibition of incorporation of the labelled nucleotide in the sample with respect to the control (100−(DPM of the sample/DPM control)*100).

[2] = test system: Klenow DNA polymerase enzyme without exonuclease; test: Incorporation of cytosine labelled with 32P into a DNA in the presence of DNA polymerase in an acellular system; format: biochemical; conditions: 100 μg/ml, [32P]dCTP incorporation vs control
Procedure: Incorporation of Cytosine Labelled With ^32P into a DNA in the Presence of DNA Polymerase in an Acellular System
Labelling of the DNA is carried out on a DNA fragment which incorporates nucleotides by way of the activity of the DNA polymerase enzyme. From these nucleotides, the dCTP is labelled by radioactive phosphorus (^32P).
Plasmidic DNA (pc DNA 3, invitrogen, Netherlands) is diluted to a concentration of 2 ng in 45 μl of TE solution (10 MM Tris-HCl; pH 8.0; 1 mM EDTA) then denatured by heating at 100° C. for 10 minutes before being replaced directly in ice. The denatured DNA is placed in the tube which contains the buffer solution of dATP, dGTP, dTTP, the Klenow DNA polymerase enzyme without exonuclease and the random primers (Rediprime II random prime labelling system, RPN 1633, RPN 1634, Amersham pharmacia biotech). 2 μl of Redivue [^32P]dCTP ([…] 5′(α-^32P), specific activity 250 μCi, Amersham), is added to start the reaction. The reaction is carried out in the presence or absence of the compound to be tested for 10 minutes at 37° C. or 1 hour at ambient temperature. […] 10 μl is counted into 5 ml of scintillor (Instagel® plus and Packard scintillation counter). The results are expressed as a percentage of the inhibition of incorporation of the labelled nucleotide in the sample with respect to the control (100−(DPM of the sample/DPM control)*100).

[3] = test system: Mia-Paca2 human tumor cells; test: Cell proliferation test (WST1), Mia-PaCa2; format: cell-based; conditions: Mia-Paca2, 96 hours treatment, read-out: Inhibitory concentration IC50
Procedure: as §1
(§2) The cells placed in 80 μl of Dulbecco's modified Eagle medium (Gibco-Brl, Cergy-Pontoise, France) completed with 10% foetal calf serum inactivated by heating (Gibco-Brl, Cergy-Pontoise, France), 50000 units/l of penicillin and 50 mg/l streptomycin (Gibco-Brl, Cergy-Pontoise, France), and 2 mM of glutamine (Gibco-Brl, Cergy-Pontoise, France) were seeded on a 96-well plate on day 0. The cells were treated on day 1 for 96 hours with increasing concentrations of each of the compounds to be tested at 50 μg/ml. At the end of this period, quantification of cell proliferation is evaluated by a colorimetric test based on the cleavage of the tetrazolium salt WST1 by mitochondrial dehydrogenases in viable cells leading to the formation of formazan (Boehringer Mannheim, Meylan, France). These tests are carried out in duplicate with 8 determinations per concentration tested. For each compound to be tested, the values included in the linear part of the sigmoid were retained for linear regression analysis and used to estimate the inhibitory concentration IC50. The products are solubilized in dimethylsulphoxide (DMSO) at 10^−2 M and finally used in culture with 0.5% DMSO.

[4] = test system: DU145 human tumor cells; test: Cell proliferation test (WST1), DU145; format: cell-based; conditions: DU-145, 96 hours treatment, read-out: Inhibitory concentration IC50
Procedure: as §1, §2

Structure (SMILES) | Remaining thymidine incorporation (dpm sample/dpm control) ([1]; 25 μg/ml) | Remaining thymidine incorporation (dpm sample/dpm control) ([1]; 50 μg/ml) | Remaining thymidine incorporation (dpm sample/dpm control) ([1]; 100 μg/ml) | Inhibition of incorporation (%) [2] | IC50 [3] [µM] | IC50 [4] [µM]
C[C@H]1C(=O)O[C@H]2C[C@]3(C)O[C@H]3[C@@H]3O[C@@H]3C3=C[C@@H](OC3=O)[C@@H]21 [Dihydromikanolide, dihydromikanolide] | 0.58 | 0.29 | 0.19 | 73 (n = 5; standard deviation σ = 7) % |  | 
C=C1C(=O)O[C@H]2C[C@]3(C)O[C@H]3[C@@H]3O[C@@H]3C3=C[C@@H](OC3=O)[C@H]12 [Mikanolide, mikanolide] | 1.04 | 0.61 | 0.53 | 79.6 (n = 3; standard deviation σ = 11.0) % | 3 | 15
